# According to patent US20240409585A1, “MACROCYCLIC IMMUNOMODULATORS” (priority 2021, published 2024):
# Numbered stars: 1 amine (or outer) side, 2 acyl side, 3 side chain; on linkers, the order of the positions; unused ones are H or OH. Bridge positions count the residues as written; N and C are the ends. Square brackets hold non-standard residues; d marks the D form. Peptide text beside a SMILES is read from it. * marks the point of attachment. X33 = O=C([C@H](Cc1ccc(-c2cccc(Cl)c2)cc1)N[*:1])[*:2]; Phe(3-CF3) = N[C@@H](Cc1cccc(C(F)(F)F)c1)C(=O)O; Ala(morpholin-4-yl) = N[C@@H](CN1CCOCC1)C(=O)O; Phe(4-CONH2) = NC(=O)c1ccc(C[C@H](N)C(=O)O)cc1; Phe(4-COOH) = N[C@@H](Cc1ccc(C(=O)O)cc1)C(=O)O; Bip = N[C@@H](Cc1ccc(-c2ccccc2)cc1)C(=O)O; Phe(3-Br) = N[C@@H](Cc1cccc(Br)c1)C(=O)O; Phe(3-Me) = Cc1cccc(C[C@H](N)C(=O)O)c1; Cha = N[C@@H](CC1CCCCC1)C(=O)O; Cit = NC(=O)NCCC[C@H](N)C(=O)O; Carboxymethyl = O=C(O)C*; NMeA = CN[C@@H](C)C(=O)O; Orn = NCCC[C@H](N)C(=O)O; Dab = NCC[C@H](N)C(=O)O; Nva = CCC[C@H](N)C(=O)O; Dap = NC[C@H](N)C(=O)O
# Target: T1, PE-labeled human PD-L1-Ig binding to Jurkat cell line over-expressing human PD-1 (Jurkat-PD-1) (Homo sapiens, UniProt Q15116)
# T1 construct: expressed in transfected cells; host or cells: Jurkat
# Experiment: Jurkat-PD-1 Cell Binding High-Content Screening Assay (CBA): Method 1
# Conditions: Jurkat-hPD-1 cells, PE-labeled PD-L1-Ig 20 nM final; read-out: Jurkat HPDL1 PD1 IC50 (uM) (Method 1)
# T1 sequence (Q15116 25-288): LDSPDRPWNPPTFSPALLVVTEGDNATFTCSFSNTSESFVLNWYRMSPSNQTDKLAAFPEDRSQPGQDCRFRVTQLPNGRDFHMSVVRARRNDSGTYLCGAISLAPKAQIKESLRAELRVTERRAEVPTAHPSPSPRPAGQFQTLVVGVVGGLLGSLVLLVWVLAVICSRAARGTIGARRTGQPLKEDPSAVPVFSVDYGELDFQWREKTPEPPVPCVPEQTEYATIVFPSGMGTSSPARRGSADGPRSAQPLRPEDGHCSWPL
row,SMILES,IC50 [µM]
1,CCC[C@@H]1NC(=O)[C@H](CCCNC(=N)N)NC(=O)[C@@H](CC(C)C)NC(=O)[C@H](C)N(C)C(=O)[C@H](CCCNC(=N)N)NC(=O)[C@H](Cc2ccc(-c3ccccc3)cc2)NC(=O)[C@H](C(C)C)NC(=O)[C@H](Cc2c[nH]c3ccccc23)NC(=O)[C@H](CC(=O)O)NC(=O)[C@H](Cc2ccc(O)cc2)NC(=O)[C@H](Cc2ccccc2)NC(=O)CSC[C@@H](C(=O)N[C@@H](C)C(N)=O)NC(=O)[C@H]([C@@H](C)O)NC(=O)[C@H](C(C)C)NC1=O [Compound 1113] ({CH2CO}-FYDWV[Bip]R[NMeA][dL]R[Nva]VTCA-NH2; thioether N-14),0.14
2,CC(C)C[C@@H]1NC(=O)[C@H](Cc2c[nH]c3ccccc23)NC(=O)[C@H](CC(=O)O)NC(=O)[C@H](Cc2ccc(O)cc2)NC(=O)[C@H](Cc2ccccc2)NC(=O)CSC[C@@H](C(=O)N[C@@H](C)C(N)=O)NC(=O)[C@H](CO)NC(=O)[C@H](C(C)C)NC(=O)[C@H](CC(C)C)NC(=O)[C@H](CC(N)=O)NC(=O)[C@@H](C)NC(=O)[C@H](C)N(C)C(=O)[C@H](C(C)C)NC(=O)[C@H](Cc2ccc(-c3cccc(Cl)c3)cc2)NC1=O [Compound 1774] ({CH2CO}-FYDWL[X33]V[NMeA][dA]NLVSCA-NH2; thioether N-14),0.05
3,CCC[C@@H]1NC(=O)[C@H](CC(C)C)NC(=O)[C@H](CCCNC(=N)N)NC(=O)[C@@H](CC(C)C)NC(=O)[C@H](C)N(C)C(=O)[C@H](CCCNC(=N)N)NC(=O)[C@H](Cc2ccc(-c3ccccc3)cc2)NC(=O)[C@H](C(C)C)NC(=O)[C@H](Cc2c[nH]c3ccccc23)NC(=O)[C@H](CC(=O)O)NC(=O)[C@H](Cc2ccc(O)cc2)NC(=O)[C@H](Cc2ccccc2)NC(=O)CSC[C@@H](C(=O)N[C@@H](C)C(N)=O)NC(=O)[C@H]([C@@H](C)O)NC1=O [Compound 1112] ({CH2CO}-FYDWV[Bip]R[NMeA][dL]RL[Nva]TCA-NH2; thioether N-14),0.1
4,CC(C)C[C@@H]1NC(=O)[C@H](Cc2c[nH]c3ccccc23)NC(=O)[C@H](CC(=O)O)NC(=O)[C@H](Cc2ccc(C(N)=O)cc2)NC(=O)[C@H](Cc2ccccc2)NC(=O)CSC[C@@H](C(=O)N[C@@H](C)C(N)=O)NC(=O)[C@H](CO)NC(=O)[C@H](C(C)C)NC(=O)[C@H](CC(C)C)NC(=O)[C@H](CC(N)=O)NC(=O)[C@@H](C)NC(=O)[C@H](C)N(C)C(=O)[C@H](C(C)C)NC(=O)[C@H](Cc2ccc(-c3ccccc3)cc2)NC1=O [Compound 1740] ({CH2CO}-F[Phe(4-CONH2)]DWL[Bip]V[NMeA][dA]NLVSCA-NH2; thioether N-14),0.02
5,CC(C)C[C@@H]1NC(=O)[C@H](CCN)NC(=O)[C@@H](CC(C)C)NC(=O)[C@H](C)N(C)C(=O)[C@H](CCCNC(=N)N)NC(=O)[C@H](Cc2ccc(-c3ccccc3)cc2)NC(=O)[C@H](C(C)C)NC(=O)[C@H](Cc2cccc(Br)c2)NC(=O)[C@H](CC(=O)O)NC(=O)[C@H](Cc2ccc(O)cc2)NC(=O)[C@H](CC(N)=O)NC(=O)CSC[C@@H](C(=O)N[C@@H](C)C(N)=O)NC(=O)[C@H]([C@@H](C)O)NC(=O)[C@H](C(C)C)NC1=O [Compound 1217] ({CH2CO}-NYD[Phe(3-Br)]V[Bip]R[NMeA][dL][Dab]LVTCA-NH2; thioether N-14),0.06
6,CC[C@H](C)[C@@H]1NC(=O)[C@H](Cc2ccc(-c3ccccc3)cc2)NC(=O)[C@H](C(C)C)NC(=O)[C@H](Cc2c[nH]c3ccccc23)NC(=O)[C@H](CC(=O)O)NC(=O)[C@H](Cc2ccc(O)cc2)NC(=O)[C@H](CN)NC(=O)CSC[C@@H](C(=O)N[C@@H](C)C(N)=O)NC(=O)[C@H]([C@@H](C)O)NC(=O)[C@H](C(C)C)NC(=O)[C@H](CC(C)C)NC(=O)[C@H](CCCNC(=N)N)NC(=O)[C@@H](CC(C)C)NC(=O)[C@H](C)N(C)C1=O [Compound 1488] ({CH2CO}-[Dap]YDWV[Bip]I[NMeA][dL]RLVTCA-NH2; thioether N-14),0.04
7,CC(C)C[C@@H]1NC(=O)[C@H](C)NC(=O)[C@@H](C)NC(=O)[C@H](C)N(C)C(=O)[C@H](CCC(=O)O)NC(=O)[C@H](Cc2ccc(-c3ccccc3)cc2)NC(=O)[C@H](CC(C)C)NC(=O)[C@H](Cc2c[nH]c3ccccc23)NC(=O)[C@H](CC(=O)O)NC(=O)[C@H](Cc2ccc(C(=O)O)cc2)NC(=O)[C@H](Cc2ccccc2)NC(=O)CSC[C@@H](C(=O)N[C@@H](C)C(N)=O)NC(=O)[C@H](CO)NC(=O)[C@H](C(C)C)NC1=O [Compound 1773] ({CH2CO}-F[Phe(4-COOH)]DWL[Bip]E[NMeA][dA]ALVSCA-NH2; thioether N-14),0.05
8,CC(C)C[C@@H]1NC(=O)[C@H](CCN)NC(=O)[C@@H](CC(C)C)NC(=O)[C@H](C)N(C)C(=O)[C@H](CCCNC(=N)N)NC(=O)[C@H](Cc2ccc(-c3ccccc3)cc2)NC(=O)[C@H](C(C)C)NC(=O)[C@H](Cc2c[nH]c3ccccc23)NC(=O)[C@H](CC(N)=O)NC(=O)[C@H](Cc2ccc(O)cc2)NC(=O)[C@H](CC(N)=O)NC(=O)CSC[C@@H](C(=O)N[C@@H](C)C(N)=O)NC(=O)[C@H]([C@@H](C)O)NC(=O)[C@H](C(C)C)NC1=O [Compound 1186] ({CH2CO}-NYNWV[Bip]R[NMeA][dL][Dab]LVTCA-NH2; thioether N-14),0.93
9,CC(C)C[C@H]1NC(=O)[C@H](C)N(C)C(=O)[C@H](CCC(N)=O)NC(=O)[C@H](Cc2ccc(-c3ccccc3)cc2)NC(=O)[C@H](Cc2ccc(C(=O)O)cc2)NC(=O)[C@H](Cc2cccc(C(F)(F)F)c2)NC(=O)[C@H](CC(N)=O)NC(=O)[C@H](Cc2ccc(OCC(=O)O)cc2)NC(=O)[C@H](CN2CCOCC2)NC(=O)CSC[C@@H](C(=O)N[C@@H](CCN)C(N)=O)NC(=O)[C@H](CCCN)NC(=O)[C@H](C(C)C)NC(=O)[C@H](CC2CCCCC2)NC(=O)[C@H](CCN)NC1=O [Example 2280] ({CH2CO}-[Ala(morpholin-4-yl)]Y(Carboxymethyl)N[Phe(3-CF3)][Phe(4-COOH)][Bip]Q[NMeA][dL][Dab][Cha]V[Orn]C[Dab]-NH2; thioether N-14),0.14
10,CC(C)C[C@H]1NC(=O)[C@H](C)N(C)C(=O)[C@H](C(C)C)NC(=O)[C@H](Cc2ccc(-c3ccccc3)cc2)NC(=O)[C@H](C(C)C)NC(=O)[C@H](Cc2c[nH]c3ccccc23)NC(=O)[C@H](CC(=O)O)NC(=O)[C@H](Cc2ccc(O)cc2)NC(=O)[C@H](CC(N)=O)NC(=O)CSC[C@@H](C(=O)N[C@@H](C)C(N)=O)NC(=O)[C@H]([C@@H](C)O)NC(=O)[C@H](C(C)C)NC(=O)[C@H](CC2CCCCC2)NC(=O)[C@H](CCCNC(=N)N)NC1=O [Compound 1294] ({CH2CO}-NYDWV[Bip]V[NMeA][dL]R[Cha]VTCA-NH2; thioether N-14),0.3
11,CC(C)C[C@@H]1NC(=O)[C@H](CCN)NC(=O)[C@@H](CC(C)C)NC(=O)[C@H](C)N(C)C(=O)[C@H](CCCNC(=N)N)NC(=O)[C@H](Cc2ccc(-c3ccccc3)cc2)NC(=O)[C@H](C(C)C)NC(=O)[C@H](Cc2c[nH]c3ccccc23)NC(=O)[C@H](CC(=O)O)NC(=O)[C@H](Cc2ccc(O)cc2)NC(=O)[C@H](Cc2ccccc2)NC(=O)CSC[C@@H](C(=O)N[C@H](C)C(N)=O)NC(=O)[C@H]([C@@H](C)O)NC(=O)[C@H](C(C)C)NC1=O [Compound 1170] ({CH2CO}-FYDWV[Bip]R[NMeA][dL][Dab]LVTC[dA]-NH2; thioether N-14),0.05
12,CC[C@H](C)[C@@H]1NC(=O)[C@H](Cc2ccc(-c3ccccc3)cc2)NC(=O)[C@H](C(C)C)NC(=O)[C@H](Cc2c[nH]c3ccccc23)NC(=O)[C@H](CC(=O)O)NC(=O)[C@H](Cc2ccc(O)cc2)NC(=O)[C@H](CC(N)=O)NC(=O)CSC[C@@H](C(=O)N[C@@H](C)C(N)=O)NC(=O)[C@H]([C@@H](C)O)NC(=O)[C@H](C(C)C)NC(=O)[C@H](CC(C)C)NC(=O)[C@H](CCCNC(=N)N)NC(=O)[C@@H](CC(C)C)NC(=O)[C@H](C)N(C)C1=O [Compound 1490] ({CH2CO}-NYDWV[Bip]I[NMeA][dL]RLVTCA-NH2; thioether N-14),0.07
13,CC(C)C[C@@H]1NC(=O)[C@H](CCCNC(=N)N)NC(=O)[C@@H](C)NC(=O)[C@H](C)N(C)C(=O)[C@H](C(C)C)NC(=O)[C@H](Cc2ccc(-c3ccccc3)cc2)NC(=O)[C@H](C(C)C)NC(=O)[C@H](Cc2c[nH]c3ccccc23)NC(=O)[C@H](CC(=O)O)NC(=O)[C@H](Cc2ccc(O)cc2)NC(=O)[C@H](Cc2ccccc2)NC(=O)CSC[C@@H](C(=O)N[C@@H](C)C(N)=O)NC(=O)[C@H](CO)NC(=O)[C@H](C(C)C)NC1=O [Compound 1779] ({CH2CO}-FYDWV[Bip]V[NMeA][dA]RLVSCA-NH2; thioether N-14),0.07
14,Cc1cccc(C[C@@H]2NC(=O)[C@H](CC(=O)O)NC(=O)[C@H](Cc3ccc(C(=O)O)cc3)NC(=O)[C@H](Cc3ccc(OCC(=O)O)cc3)NC(=O)CSC[C@@H](C(=O)N[C@@H](C)C(N)=O)NC(=O)[C@H]([C@@H](C)O)NC(=O)[C@H](C(C)C)NC(=O)[C@H](CC(C)C)NC(=O)[C@H](CCN)NC(=O)[C@@H](CC(C)C)NC(=O)[C@H](C)N(C)C(=O)[C@H](CCCNC(N)=O)NC(=O)[C@H](Cc3ccc(-c4ccccc4)cc3)NC(=O)[C@H](C(C)C)NC2=O)c1 [Compound 1574] ({CH2CO}-Y(Carboxymethyl)[Phe(4-COOH)]D[Phe(3-Me)]V[Bip][Cit][NMeA][dL][Dab]LVTCA-NH2; thioether N-14),0.02
15,Cc1cccc(C[C@@H]2NC(=O)[C@H](CC(=O)O)NC(=O)[C@H](Cc3ccc(OCC(=O)O)cc3)NC(=O)[C@H]([C@@H](C)O)NC(=O)CSC[C@@H](C(N)=O)NC(=O)[C@H](CCCN)NC(=O)[C@H](C(C)C)NC(=O)[C@H](CC3CCCCC3)NC(=O)[C@H](CCN)NC(=O)[C@@H](CC(C)C)NC(=O)[C@H](C)N(C)C(=O)[C@H](Cc3ccc(OCC(=O)O)cc3)NC(=O)[C@H](Cc3ccc(-c4ccccc4)cc3)NC(=O)[C@H](Cc3ccc(OCC(=O)O)cc3)NC2=O)c1 [Compound 1674] ({CH2CO}-TY(Carboxymethyl)D[Phe(3-Me)]Y(Carboxymethyl)[Bip]Y(Carboxymethyl)[NMeA][dL][Dab][Cha]V[Orn]C-NH2; thioether N-14),0.07
